# In PubChem BioAssay (NCI):
#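 Test compounds were applied to cells in 96-well plates for 48 hours at 5 doses. GI50 marks 50% less growth. At the TGI there is no net growth.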
# What was measured:
# Assay in all cases: inhibition of tumour cell growth, NCI panel, 48 h
# 786-0 renal = tested on: 786-0 renal
# A498 renal = tested on: A498 renal
# A549 NSCLC = tested on: A549 NSCLC
# ACHN renal = tested on: ACHN renal
# BT-549 breast = tested on: BT-549 breast
# CAKI-1 renal = tested on: CAKI-1 renal
# CCRF-CEM leukemia = tested on: CCRF-CEM leukemia
# COLO 205 colon = tested on: COLO 205 colon
# DU-145 prostate = tested on: DU-145 prostate
# EKVX NSCLC = tested on: EKVX NSCLC
# HCC-2998 colon = tested on: HCC-2998 colon
# HCT-116 colon = tested on: HCT-116 colon
# HCT-15 colon = tested on: HCT-15 colon
# HL-60(TB) leukemia = tested on: HL-60(TB) leukemia
# HOP-62 NSCLC = tested on: HOP-62 NSCLC
# HOP-92 NSCLC = tested on: HOP-92 NSCLC
# HS 578T breast = tested on: HS 578T breast
# HT29 colon = tested on: HT29 colon
# IGROV1 ovarian = tested on: IGROV1 ovarian
# K-562 leukemia = tested on: K-562 leukemia
# KM12 colon = tested on: KM12 colon
# M14 melanoma = tested on: M14 melanoma
# MALME-3M melanoma = tested on: MALME-3M melanoma
# MCF7 breast = tested on: MCF7 breast
# MDA-MB-231 breast = tested on: MDA-MB-231 breast
# MDA-MB-435 = tested on: MDA-MB-435
# MOLT-4 leukemia = tested on: MOLT-4 leukemia
# NCI-H226 lung = tested on: NCI-H226 lung
# NCI-H23 lung = tested on: NCI-H23 lung
compound,measurement,setting,value
CN1CCN(Cc2ccc(NC(=O)c3cnc(F)c(C#Cc4cnc(N)c5ncccc45)c3)cc2C(F)(F)F)CC1,GI50,786-0 renal,448 nM
same,TGI,786-0 renal,7860 nM
same,GI50,A498 renal,161 nM
same,TGI,A498 renal,963 nM
same,GI50,A549 NSCLC,321 nM
same,TGI,A549 NSCLC,11900 nM
same,GI50,ACHN renal,119 nM
same,TGI,ACHN renal,5270 nM
same,GI50,BT-549 breast,1110 nM
same,TGI,BT-549 breast,9830 nM
same,GI50,CAKI-1 renal,110 nM
same,TGI,CAKI-1 renal,877 nM
same,GI50,CCRF-CEM leukemia,188 nM
same,TGI,CCRF-CEM leukemia,20800 nM
same,GI50,COLO 205 colon,190 nM
same,TGI,COLO 205 colon,5330 nM
same,GI50,DU-145 prostate,273 nM
same,TGI,DU-145 prostate,7950 nM
same,GI50,EKVX NSCLC,1530 nM
same,TGI,EKVX NSCLC,11300 nM
same,GI50,HCC-2998 colon,963 nM
same,TGI,HCC-2998 colon,9210 nM
same,GI50,HCT-116 colon,150 nM
same,TGI,HCT-116 colon,2990 nM
same,GI50,HCT-15 colon,184 nM
same,TGI,HCT-15 colon,7530 nM
same,GI50,HL-60(TB) leukemia,195 nM
same,TGI,HL-60(TB) leukemia,4410 nM
same,GI50,HOP-62 NSCLC,387 nM
same,TGI,HOP-62 NSCLC,9900 nM
same,GI50,HOP-92 NSCLC,133 nM
same,TGI,HOP-92 NSCLC,1170 nM
same,GI50,HS 578T breast,183 nM
same,TGI,HS 578T breast,2110 nM
same,GI50,HT29 colon,143 nM
same,TGI,HT29 colon,6020 nM
same,GI50,IGROV1 ovarian,139 nM
same,TGI,IGROV1 ovarian,7480 nM
same,GI50,K-562 leukemia,5 nM
same,TGI,K-562 leukemia,675 nM
same,GI50,KM12 colon,6.61 nM
same,TGI,KM12 colon,6050 nM
same,GI50,M14 melanoma,74.6 nM
same,TGI,M14 melanoma,601 nM
same,GI50,MALME-3M melanoma,50.8 nM
same,TGI,MALME-3M melanoma,234 nM
same,GI50,MCF7 breast,309 nM
same,TGI,MCF7 breast,5760 nM
same,GI50,MDA-MB-231 breast,189 nM
same,TGI,MDA-MB-231 breast,1140 nM
same,GI50,MDA-MB-435,141 nM
same,TGI,MDA-MB-435,6090 nM
same,GI50,MOLT-4 leukemia,182 nM
same,TGI,MOLT-4 leukemia,8640 nM
same,GI50,NCI-H226 lung,121 nM
same,TGI,NCI-H226 lung,1940 nM
same,GI50,NCI-H23 lung,485 nM
